For one compound, Ki results are on record in publication PMC4180818 (Metabolic brain disease, 2013).

This assay concerns the target human glutamine synthetase (Homo sapiens, UniProt P15104). The assay can be described thus: coupled pyruvate kinase/lactate dehydrogenase NADH assay. Format: biochemical.

Chain of human glutamine synthetase (P15104 2-373): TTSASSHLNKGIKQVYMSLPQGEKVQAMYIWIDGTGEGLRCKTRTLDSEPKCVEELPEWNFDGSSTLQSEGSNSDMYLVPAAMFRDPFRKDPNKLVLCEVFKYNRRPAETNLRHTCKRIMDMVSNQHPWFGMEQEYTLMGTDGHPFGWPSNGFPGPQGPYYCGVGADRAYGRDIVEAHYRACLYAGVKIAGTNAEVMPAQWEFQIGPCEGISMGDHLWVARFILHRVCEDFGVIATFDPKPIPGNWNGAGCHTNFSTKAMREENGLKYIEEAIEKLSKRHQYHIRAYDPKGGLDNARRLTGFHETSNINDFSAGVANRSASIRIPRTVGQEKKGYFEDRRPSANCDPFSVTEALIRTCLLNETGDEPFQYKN

By Ki is commonly meant the equilibrium dissociation constant of an inhibitor or competing ligand from its target. High values mean lower affinity, low ones higher affinity. Turning to `CS(=N)(=O)CCC(N)C(=O)O` (mixture of isomers) [MSO, L-methionine-S,R-sulfoximine], the Ki turned out to be 1190 µM. This lies in the millimolar range.
